ChEMBL document CHEMBL4507273 (2021)
pKi: −log10 of the molar value.

What was measured:
[1] = biological target: ALK tyrosine kinase receptor (Homo sapiens) (UniProt Q9UM73); details: Compound concentration 1000.0 nM
[2] = biological target: Glycogen synthase kinase-3 alpha (Homo sapiens) (UniProt P49840); details: Compound concentration 1000.0 nM
[3] = biological target: Serine/threonine-protein kinase Chk1 (Homo sapiens) (UniProt O14757); details: Compound concentration 1000.0 nM
[4] = biological target: Serine/threonine-protein kinase LATS1 (Homo sapiens) (UniProt O95835); details: Compound concentration 1000.0 nM
Sequence of Serine/threonine-protein kinase LATS1 (Homo sapiens) (O95835 whole entry): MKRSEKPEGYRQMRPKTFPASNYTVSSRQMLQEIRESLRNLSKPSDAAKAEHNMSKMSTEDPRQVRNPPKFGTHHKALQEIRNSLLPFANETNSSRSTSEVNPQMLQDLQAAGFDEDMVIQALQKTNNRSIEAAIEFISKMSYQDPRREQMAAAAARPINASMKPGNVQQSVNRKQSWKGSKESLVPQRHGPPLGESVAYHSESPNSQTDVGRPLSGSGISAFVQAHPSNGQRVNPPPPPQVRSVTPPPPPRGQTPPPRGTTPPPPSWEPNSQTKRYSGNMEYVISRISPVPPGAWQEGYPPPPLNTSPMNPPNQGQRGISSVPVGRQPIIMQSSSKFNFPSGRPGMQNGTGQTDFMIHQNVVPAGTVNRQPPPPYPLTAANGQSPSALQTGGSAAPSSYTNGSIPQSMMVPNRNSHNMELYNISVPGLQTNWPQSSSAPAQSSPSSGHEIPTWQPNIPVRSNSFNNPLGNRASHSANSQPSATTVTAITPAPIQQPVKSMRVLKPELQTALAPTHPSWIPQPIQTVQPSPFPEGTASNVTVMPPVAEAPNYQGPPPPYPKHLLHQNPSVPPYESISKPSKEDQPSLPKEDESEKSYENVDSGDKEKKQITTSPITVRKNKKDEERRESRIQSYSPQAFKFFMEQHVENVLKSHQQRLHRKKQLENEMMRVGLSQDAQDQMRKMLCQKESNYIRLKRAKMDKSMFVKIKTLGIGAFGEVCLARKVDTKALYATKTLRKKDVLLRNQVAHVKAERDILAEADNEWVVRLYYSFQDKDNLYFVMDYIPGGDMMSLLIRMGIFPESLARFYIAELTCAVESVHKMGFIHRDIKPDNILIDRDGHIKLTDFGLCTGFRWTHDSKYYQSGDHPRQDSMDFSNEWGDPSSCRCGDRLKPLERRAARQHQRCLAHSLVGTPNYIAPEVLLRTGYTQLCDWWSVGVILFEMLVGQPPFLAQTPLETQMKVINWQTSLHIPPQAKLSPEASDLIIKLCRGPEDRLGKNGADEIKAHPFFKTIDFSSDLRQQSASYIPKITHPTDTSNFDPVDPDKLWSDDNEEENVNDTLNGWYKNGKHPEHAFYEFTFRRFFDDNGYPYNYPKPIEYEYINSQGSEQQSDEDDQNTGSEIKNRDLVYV

[5] = tested on: Epidermal growth factor receptor (Homo sapiens), P00533 [L858R]; details: Compound concentration 1000.0 nM
[6] = biological target: Serine/threonine-protein kinase PLK4 (Homo sapiens) (UniProt O00444); details: Compound concentration 1000.0 nM
[7] = tested on: Epidermal growth factor receptor (Homo sapiens), P00533 [UNDEFINED MUTATION]; details: Compound concentration 1000.0 nM
[8] = biological target: Dual specificity mitogen-activated protein kinase kinase 2 (Homo sapiens) (UniProt P36507); details: Compound concentration 1000.0 nM
[9] = biological target: Serine/threonine-protein kinase RIO1 (Homo sapiens) (UniProt Q9BRS2); details: Compound concentration 1000.0 nM
[10] = biological target: Focal adhesion kinase 1 (Homo sapiens) (UniProt Q05397); details: Compound concentration 1000.0 nM
Sequence of Focal adhesion kinase 1 (Homo sapiens) (Q05397 2-1052 limits assumed): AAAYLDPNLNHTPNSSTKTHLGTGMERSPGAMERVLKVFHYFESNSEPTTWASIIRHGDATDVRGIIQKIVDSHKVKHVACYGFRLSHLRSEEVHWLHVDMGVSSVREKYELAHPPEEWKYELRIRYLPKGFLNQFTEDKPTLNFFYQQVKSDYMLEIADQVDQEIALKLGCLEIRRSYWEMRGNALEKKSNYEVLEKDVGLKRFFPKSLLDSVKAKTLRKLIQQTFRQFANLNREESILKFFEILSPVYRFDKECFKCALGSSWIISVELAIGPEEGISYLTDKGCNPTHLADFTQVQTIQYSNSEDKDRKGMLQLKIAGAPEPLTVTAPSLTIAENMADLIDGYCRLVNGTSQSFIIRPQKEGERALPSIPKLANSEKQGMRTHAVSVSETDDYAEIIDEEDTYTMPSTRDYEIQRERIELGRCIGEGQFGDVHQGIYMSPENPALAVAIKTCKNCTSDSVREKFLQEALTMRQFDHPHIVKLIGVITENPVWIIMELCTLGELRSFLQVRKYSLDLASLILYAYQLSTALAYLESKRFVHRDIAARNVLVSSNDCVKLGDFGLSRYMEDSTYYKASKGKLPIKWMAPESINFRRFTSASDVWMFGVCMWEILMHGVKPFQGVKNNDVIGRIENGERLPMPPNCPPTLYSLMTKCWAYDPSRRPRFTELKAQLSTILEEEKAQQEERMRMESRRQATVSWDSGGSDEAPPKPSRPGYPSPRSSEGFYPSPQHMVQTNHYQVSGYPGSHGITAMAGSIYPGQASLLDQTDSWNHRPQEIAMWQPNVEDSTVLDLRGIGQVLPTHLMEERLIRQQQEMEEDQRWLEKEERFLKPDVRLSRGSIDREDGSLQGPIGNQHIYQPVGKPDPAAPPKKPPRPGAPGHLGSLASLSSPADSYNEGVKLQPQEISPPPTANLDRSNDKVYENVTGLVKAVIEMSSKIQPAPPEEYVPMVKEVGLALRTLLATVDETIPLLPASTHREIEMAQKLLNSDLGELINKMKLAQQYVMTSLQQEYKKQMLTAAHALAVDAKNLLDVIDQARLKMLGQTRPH

[11] = biological target: T1, Alpha-1A adrenergic receptor (Homo sapiens, UniProt P35348); experiment: GPCRScan assay: inhibition of Alpha1A; parameters: radioligand conc. used [nm] 0.2 - 1.0, parental cells stable HEK; details: for pKi: read-out: Ki
T1 sequence (P35348 whole entry): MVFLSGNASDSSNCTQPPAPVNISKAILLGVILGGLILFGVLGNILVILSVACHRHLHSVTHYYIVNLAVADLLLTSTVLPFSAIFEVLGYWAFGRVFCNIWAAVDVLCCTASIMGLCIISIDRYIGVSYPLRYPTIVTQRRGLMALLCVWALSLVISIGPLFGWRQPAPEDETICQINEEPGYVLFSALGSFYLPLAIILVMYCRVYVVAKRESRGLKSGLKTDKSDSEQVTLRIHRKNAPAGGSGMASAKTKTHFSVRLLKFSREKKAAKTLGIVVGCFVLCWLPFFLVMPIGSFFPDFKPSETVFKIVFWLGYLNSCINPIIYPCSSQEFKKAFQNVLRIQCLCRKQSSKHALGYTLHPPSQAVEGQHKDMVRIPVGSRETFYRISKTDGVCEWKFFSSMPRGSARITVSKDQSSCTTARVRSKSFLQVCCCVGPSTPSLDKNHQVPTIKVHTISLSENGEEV

[12] = biological target: Non-receptor tyrosine-protein kinase TYK2 (Homo sapiens) (UniProt P29597); details: Compound concentration 1000.0 nM
Sequence of Non-receptor tyrosine-protein kinase TYK2 (Homo sapiens) (P29597 whole entry): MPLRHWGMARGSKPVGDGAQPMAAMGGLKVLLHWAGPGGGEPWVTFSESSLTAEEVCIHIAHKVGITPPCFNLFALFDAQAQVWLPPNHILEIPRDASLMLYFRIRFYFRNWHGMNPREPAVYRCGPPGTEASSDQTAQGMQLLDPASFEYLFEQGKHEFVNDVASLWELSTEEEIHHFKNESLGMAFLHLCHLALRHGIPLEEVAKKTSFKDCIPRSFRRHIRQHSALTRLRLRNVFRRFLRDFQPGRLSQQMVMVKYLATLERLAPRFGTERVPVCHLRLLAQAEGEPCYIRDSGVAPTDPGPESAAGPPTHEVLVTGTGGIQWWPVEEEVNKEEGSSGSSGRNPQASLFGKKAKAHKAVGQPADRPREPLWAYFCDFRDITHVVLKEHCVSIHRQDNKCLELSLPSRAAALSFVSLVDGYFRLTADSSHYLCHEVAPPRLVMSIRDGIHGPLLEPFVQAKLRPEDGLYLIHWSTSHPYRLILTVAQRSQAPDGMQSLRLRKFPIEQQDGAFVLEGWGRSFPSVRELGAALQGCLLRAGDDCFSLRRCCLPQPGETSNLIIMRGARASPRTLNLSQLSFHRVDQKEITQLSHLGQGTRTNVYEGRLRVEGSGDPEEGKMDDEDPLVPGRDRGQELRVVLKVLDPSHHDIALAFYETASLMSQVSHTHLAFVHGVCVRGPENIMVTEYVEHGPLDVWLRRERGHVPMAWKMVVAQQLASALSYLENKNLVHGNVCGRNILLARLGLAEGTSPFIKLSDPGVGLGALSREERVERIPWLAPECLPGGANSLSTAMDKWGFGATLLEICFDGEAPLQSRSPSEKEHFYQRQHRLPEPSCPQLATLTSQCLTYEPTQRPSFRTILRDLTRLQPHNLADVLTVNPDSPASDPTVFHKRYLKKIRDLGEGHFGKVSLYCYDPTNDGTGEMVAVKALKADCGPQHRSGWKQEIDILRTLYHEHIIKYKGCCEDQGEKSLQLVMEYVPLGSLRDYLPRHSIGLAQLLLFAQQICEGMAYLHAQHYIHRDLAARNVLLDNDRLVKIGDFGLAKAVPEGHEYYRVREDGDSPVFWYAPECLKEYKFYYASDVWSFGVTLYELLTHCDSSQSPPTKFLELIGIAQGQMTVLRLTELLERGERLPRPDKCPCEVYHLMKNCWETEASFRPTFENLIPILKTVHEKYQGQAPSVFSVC

[13] = biological target: Atypical kinase COQ8B, mitochondrial (Homo sapiens) (UniProt Q96D53); details: Compound concentration 1000.0 nM
[14] = biological target: Uncharacterized serine/threonine-protein kinase SBK3 (Homo sapiens) (UniProt P0C264); details: Compound concentration 1000.0 nM
[15] = biological target: Cyclin-dependent kinase 8 (Homo sapiens) (UniProt P49336); details: Compound concentration 1000.0 nM
[16] = biological target: Tyrosine-protein kinase Fgr (Homo sapiens) (UniProt P09769); details: Compound concentration 1000.0 nM
[17] = tested on: Receptor-type tyrosine-protein kinase FLT3 (Homo sapiens), P36888 [K663Q]; details: Compound concentration 1000.0 nM
[18] = biological target: Serine/threonine-protein kinase TAO1 (Homo sapiens) (UniProt Q7L7X3); details: Compound concentration 1000.0 nM
[19] = biological target: Myosin light chain kinase (Homo sapiens) (UniProt Q32MK0); details: Compound concentration 1000.0 nM
[20] = biological target: Serine/threonine-protein kinase ULK3 (Homo sapiens) (UniProt Q6PHR2); details: Compound concentration 1000.0 nM
Sequence of Serine/threonine-protein kinase ULK3 (Homo sapiens) (Q6PHR2 whole entry, the tested form may be a part): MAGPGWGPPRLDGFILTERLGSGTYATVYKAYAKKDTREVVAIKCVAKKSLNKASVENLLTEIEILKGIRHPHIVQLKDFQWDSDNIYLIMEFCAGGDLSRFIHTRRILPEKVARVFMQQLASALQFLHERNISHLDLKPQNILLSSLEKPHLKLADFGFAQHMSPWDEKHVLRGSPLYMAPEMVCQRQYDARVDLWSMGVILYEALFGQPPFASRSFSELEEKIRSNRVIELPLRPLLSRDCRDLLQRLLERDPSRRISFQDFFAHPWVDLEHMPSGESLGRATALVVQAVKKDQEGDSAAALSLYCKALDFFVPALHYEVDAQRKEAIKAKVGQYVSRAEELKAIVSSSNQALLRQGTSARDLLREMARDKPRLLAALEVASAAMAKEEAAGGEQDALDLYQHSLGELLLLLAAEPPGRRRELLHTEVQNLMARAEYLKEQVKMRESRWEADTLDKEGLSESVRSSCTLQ

[21] = biological target: Ankyrin repeat and protein kinase domain-containing protein 1 (Homo sapiens) (UniProt Q8NFD2); details: Compound concentration 1000.0 nM
[22] = biological target: Serine/threonine-protein kinase Chk2 (Homo sapiens) (UniProt O96017); details: Compound concentration 1000.0 nM
Sequence of Serine/threonine-protein kinase Chk2 (Homo sapiens) (O96017 whole entry): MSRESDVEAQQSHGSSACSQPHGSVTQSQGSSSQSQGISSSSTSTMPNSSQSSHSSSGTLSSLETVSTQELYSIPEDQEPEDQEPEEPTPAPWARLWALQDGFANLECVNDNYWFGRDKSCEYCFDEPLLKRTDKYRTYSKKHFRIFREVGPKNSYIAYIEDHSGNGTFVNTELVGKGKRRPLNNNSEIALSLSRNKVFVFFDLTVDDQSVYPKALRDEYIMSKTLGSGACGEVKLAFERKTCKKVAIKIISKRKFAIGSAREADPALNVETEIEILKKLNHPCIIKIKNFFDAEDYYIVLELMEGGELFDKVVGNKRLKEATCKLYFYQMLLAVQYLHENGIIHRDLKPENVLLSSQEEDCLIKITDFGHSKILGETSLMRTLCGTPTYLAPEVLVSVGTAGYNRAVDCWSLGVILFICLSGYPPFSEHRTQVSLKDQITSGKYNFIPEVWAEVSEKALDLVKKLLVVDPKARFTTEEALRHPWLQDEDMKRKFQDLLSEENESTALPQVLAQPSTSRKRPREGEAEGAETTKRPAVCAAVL

[23] = biological target: Muscarinic acetylcholine receptor M3 (Homo sapiens, UniProt P20309); details: Compound concentration 10.0 uM
[24] = tested on: Receptor-type tyrosine-protein kinase FLT3 (Homo sapiens), P36888 [UNDEFINED MUTATION]; details: Compound concentration 1000.0 nM
[25] = biological target: Proto-oncogene tyrosine-protein kinase Src (Homo sapiens) (UniProt P12931); details: Compound concentration 1000.0 nM
Sequence of Proto-oncogene tyrosine-protein kinase Src (Homo sapiens) (P12931 2-536 limits assumed): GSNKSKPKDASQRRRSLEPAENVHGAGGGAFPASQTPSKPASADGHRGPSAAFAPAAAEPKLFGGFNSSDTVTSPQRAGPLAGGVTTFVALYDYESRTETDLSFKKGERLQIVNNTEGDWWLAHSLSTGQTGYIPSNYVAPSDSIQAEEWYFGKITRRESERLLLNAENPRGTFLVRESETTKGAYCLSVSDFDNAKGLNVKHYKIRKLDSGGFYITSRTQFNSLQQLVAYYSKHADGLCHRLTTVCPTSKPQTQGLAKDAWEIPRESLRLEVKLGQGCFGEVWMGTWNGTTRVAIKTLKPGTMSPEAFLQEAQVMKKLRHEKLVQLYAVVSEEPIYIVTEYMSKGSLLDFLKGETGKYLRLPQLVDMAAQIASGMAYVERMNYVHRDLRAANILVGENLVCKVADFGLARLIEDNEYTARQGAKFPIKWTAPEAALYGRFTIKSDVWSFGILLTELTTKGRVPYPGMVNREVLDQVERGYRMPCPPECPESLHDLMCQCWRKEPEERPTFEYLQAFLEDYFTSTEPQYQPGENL

[26] = biological target: Aurora kinase A (Homo sapiens) (UniProt O14965); details: Compound concentration 1000.0 nM
[27] = biological target: Tyrosine-protein kinase HCK (Homo sapiens) (UniProt P08631); details: Compound concentration 1000.0 nM
[28] = biological target: Myosin-IIIa (Homo sapiens) (UniProt Q8NEV4); details: Compound concentration 1000.0 nM
[29] = tested on: Epidermal growth factor receptor (Homo sapiens), P00533 [G719C]; details: Compound concentration 1000.0 nM
[30] = biological target: Serine/threonine-protein kinase PAK 3 (Homo sapiens) (UniProt O75914); details: Compound concentration 1000.0 nM
[31] = biological target: Insulin receptor-related protein (Homo sapiens) (UniProt P14616); details: Compound concentration 1000.0 nM
[32] = biological target: Dual specificity protein kinase TTK (Homo sapiens) (UniProt P33981); details: Compound concentration 1000.0 nM
[33] = biological target: Dual specificity mitogen-activated protein kinase kinase 1 (Homo sapiens) (UniProt Q02750); details: Compound concentration 1000.0 nM
[34] = tested on: Phosphatidylinositol 4,5-bisphosphate 3-kinase catalytic subunit alpha isoform (Homo sapiens), P42336 [E545A]; details: Compound concentration 1000.0 nM
[35] = biological target: Non-receptor tyrosine-protein kinase TYK2 (Homo sapiens) (UniProt P29597); details: Compound concentration 1000.0 nM; remark: listed apart in the source
[36] = biological target: 5-hydroxytryptamine receptor 6 (Homo sapiens) (UniProt P50406); details: Compound concentration 10.0 uM
[37] = biological target: Mitogen-activated protein kinase 3 (Homo sapiens) (UniProt P27361); details: Compound concentration 1000.0 nM
[38] = biological target: Serine/threonine-protein kinase 33 (Homo sapiens) (UniProt Q9BYT3); details: Compound concentration 1000.0 nM

Structure (SMILES): CNCc1ccccc1-c1csc([C@H](C)Nc2nc(C)nc3cc(OC)c(OC)cc23)c1 [BAY-294]
- residual activity [1]: 73%
- residual activity [2]: 100%
- residual activity [3]: 100%
- residual activity [4]: 100%
- residual activity [5]: 100%
- residual activity [6]: 76%
- residual activity [7]: 100%
- residual activity [8]: 100%
- residual activity [9]: 96%
- residual activity [10]: 92%
- pKi [11]: 6.34
- Ki ([11]; read-out: pKi (converted)): 437 nM
- residual activity [12]: 76%
- residual activity [13]: 93%
- residual activity [14]: 100%
- residual activity [15]: 84%
- residual activity [16]: 100%
- residual activity [17]: 93%
- residual activity [18]: 100%
- residual activity [19]: 100%
- residual activity [20]: 88%
- residual activity [21]: 90%
- residual activity [22]: 87%
- inhibition [23]: 48%
- residual activity [24]: 99%
- residual activity [25]: 100%
- residual activity [26]: 73%
- residual activity [27]: 98%
- residual activity [28]: 100%
- residual activity [29]: 85%
- residual activity [30]: 87%
- residual activity [31]: 93%
- residual activity [32]: 100%
- residual activity [33]: 100%
- residual activity [34]: 97%
- residual activity [35]: 100%
- inhibition [36]: 20.2%
- residual activity [37]: 100%
- residual activity [38]: 73%

Structure (SMILES): CNCc1ccccc1-c1csc([C@@H](C)Nc2nc(C)nc3cc(OC)c(OC)cc23)c1 [BAY-293]
- residual activity [1]: 79%
- residual activity [2]: 100%
- residual activity [3]: 92%
- residual activity [4]: 100%
- residual activity [5]: 82%
- residual activity [6]: 74%
- residual activity [7]: 61%
- residual activity [8]: 82%
- residual activity [9]: 100%
- residual activity [10]: 86%
- pKi [11]: 6.37
- residual activity [12]: 71%
- residual activity [13]: 65%
- residual activity [14]: 100%
- residual activity [15]: 68%
- residual activity [16]: 100%
- residual activity [17]: 77%
- residual activity [18]: 95%
- residual activity [19]: 96%
- residual activity [20]: 78%
- residual activity [21]: 76%
- residual activity [22]: 76%
- inhibition [23]: 56.5%
- residual activity [24]: 89%
- residual activity [25]: 100%
- residual activity [26]: 73%
- residual activity [27]: 97%
- residual activity [28]: 100%
- residual activity [29]: 63%
- residual activity [30]: 86%
- residual activity [31]: 95%
- residual activity [32]: 97%
- residual activity [33]: 86%
- residual activity [34]: 91%
- residual activity [35]: 99%
- inhibition [36]: -1.41%
- residual activity [37]: 94%
- residual activity [38]: 45%
